This is an account of results in ChEMBL document CHEMBL5137009, “On the Utility of Chemical Strategies to Improve Peptide Gut Stability” (J Med Chem, 2022).

By half-life is commonly meant the time needed for the level to fall by half in the phase considered.

*1 amine or outer side, *2 acyl side, *3 side chain or, on linkers, in order; H or OH if unused. Where a SMILES comes first, the peptide text is derived from it. Bridges are numbered along the chain shown (N, C = ends). X1 = O=C(CCC[*:2])[*:1]

Data set [1] in a line: Stability of the compound in simulated intestinal fluid at pH 6.8 assessed as half life measured up to 24 hrs by RP-HPLC-UV analysis. The class given is ADME.
Data set [2] is described as follows: Stability of the compound in simulated gastric fluid at pH 1.2 assessed as half life measured up to 24 hrs by RP-HPLC-UV analysis. The class given is ADME.

As for `CC[C@H](C)[C@@H]1NC(=O)[C@H](Cc2ccc(O)cc2)NC(=O)[C@@H](N)CSSC[C@@H](C(=O)N2CCC[C@H]2C(=O)N[C@@H](CC(C)C)C(=O)N(C)CC(N)=O)NC(=O)[C@H](CC(N)=O)NC(=O)[C@H](CCC(N)=O)NC1=O`, in data set [1], the half-life was 2.9 h.

Consider `CC(C)C[C@@H]1NC(=O)CNC(=O)[C@H](CC(N)=O)NC(=O)[C@H](CCCNC(=N)N)NC(=O)[C@H]([C@@H](C)O)NC(=O)[C@@H]2CSSC[C@@H]3NC(=O)[C@H]([C@@H](C)O)NC(=O)CNC(=O)CNC(=O)[C@H](C(C)C)NC(=O)[C@@H]4CSSC[C@H](NC(=O)[C@H]([C@@H](C)O)NC(=O)[C@H](CSSC[C@H](NC(=O)[C@H](C(C)C)NC(=O)[C@@H]5CCCN5C1=O)C(=O)NCC(=O)N[C@@H](CCC(=O)O)C(=O)N[C@@H]([C@@H](C)O)C(=O)N4)NC(=O)CNC(=O)[C@@H]1CCCN1C(=O)[C@H]([C@@H](C)O)NC(=O)[C@H](CC(N)=O)NC3=O)C(=O)N[C@@H](CO)C(=O)N[C@@H](Cc1c[nH]c3ccccc13)C(=O)N1CCC[C@H]1C(=O)N[C@@H](C(C)C)C(=O)N2`, for which the half-life in data set [2] and in data set [1] was above 24 h in each case.

`CC[C@H](C)[C@@H]1NC(=O)[C@H](Cc2ccc(O)cc2)NC(=O)[C@@H]2CSSC[C@@H]3NC(=O)[C@H](C(C)C)NC(=O)[C@@H]4CCCN4C(=O)[C@H](Cc4c[nH]c5ccccc45)NC(=O)[C@H](CO)NC(=O)[C@@H]4CSSC[C@H](NC(=O)[C@H]([C@@H](C)O)NC(=O)[C@H](CCC(=O)O)NC(=O)CNC(=O)[C@H](CSSC[C@H](NC(=O)[C@H](CC(N)=O)NC(=O)[C@H](CCC(N)=O)NC1=O)C(=O)N[C@@H]([C@@H](C)O)C(=O)N4)NC(=O)[C@H](C(C)C)NC(=O)[C@@H]1CCCN1C(=O)[C@H](CC(C)C)NC(=O)CNC(=O)[C@H](CC(N)=O)NC(=O)[C@H](CCCNC(=N)N)NC(=O)[C@H]([C@@H](C)O)NC3=O)C(=O)N[C@@H](C(C)C)C(=O)NCC(=O)NCC(=O)N[C@@H]([C@@H](C)O)C(=O)N2`: in data set [1], the half-life is above 24 h.

On to `CC[C@H](C)[C@@H]1NC(=O)[C@H](Cc2ccc(O)cc2)NC(=O)[C@@H](N)CSSC[C@@H](C(=O)N2CCC[C@H]2C(=O)N[C@@](C)(CC(C)C)C(=O)NCC(N)=O)NC(=O)[C@H](CC(N)=O)NC(=O)[C@H](CCC(N)=O)NC1=O`, for which, in data set [1], the half-life is 4.4 h.

Consider `CC[C@H](C)[C@@H]1NC(=O)[C@H](Cc2ccc(O)cc2)NC(=O)[C@@H]2CSSC[C@@H]3NC(=O)[C@H]([C@@H](C)CC)NC(=O)[C@@H]4CCCN4C(=O)[C@H](Cc4c[nH]c5ccccc45)NC(=O)[C@H](CO)NC(=O)[C@@H]4CSSC[C@H](NC(=O)[C@H]([C@@H](C)O)NC(=O)[C@H](CCC(=O)O)NC(=O)CNC(=O)[C@H](CSSC[C@H](NC(=O)[C@H](CC(N)=O)NC(=O)[C@H]([C@@H](C)O)NC1=O)C(=O)N[C@@H]([C@@H](C)O)C(=O)N4)NC(=O)[C@H](C(C)C)NC(=O)[C@@H]1CCCN1C(=O)[C@H](CC(C)C)NC(=O)CNC(=O)[C@H](CC(N)=O)NC(=O)[C@H](CCCNC(=N)N)NC(=O)[C@H](CCCCN)NC3=O)C(=O)N[C@@H]([C@@H](C)O)C(=O)N[C@@H](CC(C)C)C(=O)NCC(=O)N[C@@H]([C@@H](C)O)C(=O)N2`, for which the half-life in data set [1] was above 24 h.

Turning to `CC[C@H](C)[C@@H]1NC(=O)[C@H](Cc2ccc(O)cc2)NC(=O)[C@@H](N)CSSC[C@@H](C(=O)N2CCC[C@H]2C(=O)N[C@H](CC(=O)NCC(N)=O)CC(C)C)NC(=O)[C@H](CC(N)=O)NC(=O)[C@H](CCC(N)=O)NC1=O`, the half-life in data set [1] is 3.6 h.

Consider `CC[C@H](C)[C@@H]1NC(=O)[C@H](Cc2ccc(O)cc2)NC(=O)[C@@H]2CSSC[C@@H]3NC(=O)[C@H](C(C)C)NC(=O)[C@@H]4CCCN4C(=O)[C@H](Cc4c[nH]c5ccccc45)NC(=O)[C@H](CO)NC(=O)[C@@H]4CSSC[C@H](NC(=O)[C@H]([C@@H](C)O)NC(=O)[C@H](CCC(=O)O)NC(=O)CNC(=O)[C@H](CSSC[C@H](NC(=O)[C@H](CC(N)=O)NC(=O)[C@H]([C@@H](C)O)NC1=O)C(=O)N[C@@H]([C@@H](C)O)C(=O)N4)NC(=O)[C@H](C(C)C)NC(=O)[C@@H]1CCCN1C(=O)[C@H](CC(C)C)NC(=O)CNC(=O)[C@H](CC(N)=O)NC(=O)[C@H](CCCNC(=N)N)NC(=O)[C@H]([C@@H](C)O)NC3=O)C(=O)N[C@@H](C(C)C)C(=O)NCC(=O)NCC(=O)N[C@@H]([C@@H](C)O)C(=O)N2`, for which the half-life in data set [1] was above 24 h.

Regarding `CC[C@H](C)[C@@H]1NC(=O)[C@@H]2CCCN2C(=O)[C@H](Cc2c[nH]c3ccccc23)NC(=O)[C@H](CO)NC(=O)[C@@H]2CSSC[C@@H]3NC(=O)[C@H]([C@@H](C)O)NC(=O)[C@H](CCC(=O)O)NC(=O)CNC(=O)[C@@H]4CSSC[C@H](NC(=O)CNC(=O)[C@H](CCC(N)=O)NC(=O)[C@H]([C@@H](C)O)NC(=O)[C@H](Cc5ccc(O)cc5)NC(=O)[C@H](CSSC[C@H](NC1=O)C(=O)N[C@@H](CCCCN)C(=O)N[C@@H](CCCNC(=N)N)C(=O)N[C@@H](CC(N)=O)C(=O)NCC(=O)N[C@@H](CC(C)C)C(=O)N1CCC[C@H]1C(=O)N[C@@H](C(C)C)C(=O)N4)NC(=O)[C@H]([C@@H](C)O)NC(=O)CNC(=O)[C@H](CC(C)C)NC(=O)[C@H]([C@@H](C)O)NC3=O)C(=O)N[C@@H]([C@@H](C)O)C(=O)N2`, the half-life in data set [2] and in data set [1] was above 24 h in each case.

Turning to `CC[C@H](C)[C@@H]1NC(=O)[C@H](Cc2ccc(O)cc2)NC(=O)[C@@H]2CSSC[C@H](NC(=O)[C@H](CC(N)=O)NC(=O)[C@H](CCC(N)=O)NC1=O)C(=O)N1CCC[C@H]1C(=O)N[C@@H](CC(C)C)C(=O)NCC(=O)N2`, in data set [1], the half-life was 0.117 h.

With `CC[C@@H](C)[C@H]1NC(=O)[C@@H](Cc2ccc(O)cc2)NC(=O)[C@H](N)CSSC[C@H](C(=O)N2CCC[C@@H]2C(=O)N[C@H](CC(C)C)C(=O)NCC(N)=O)NC(=O)[C@@H](CC(N)=O)NC(=O)[C@@H](CCC(N)=O)NC1=O`, the half-life in data set [1] is above 24 h.

Regarding `[H][C@@]12CCCN1C(=O)[C@@H]1CSSC[C@H](NC(=O)CNC(=O)[C@H](C)NC(=O)CNC(=O)[C@H](C)NC(=O)CNC(=O)[C@H](C)NC(=O)CNC(=O)[C@H](CC(C)C)NC2=O)C(=O)N[C@@H](Cc2ccc(O)cc2)C(=O)N[C@@H]([C@@H](C)CC)C(=O)N[C@@H](CCC(N)=O)C(=O)N[C@@H](CC(N)=O)C(=O)N1` (HELM PEPTIDE1{A.G.A.G.A.G.C.Y.I.Q.N.C.P.L.G}$PEPTIDE1,PEPTIDE1,7:R3-12:R3|PEPTIDE1,PEPTIDE1,1:R1-15:R2$$$V2.0), the half-life in data set [1] is below 0.05 h.

As to `CC[C@H](C)[C@@H]1NC(=O)[C@@H]2CSSC[C@H](NC(=O)[C@H](CCCNC(=N)N)NC(=O)[C@@H]3CSSC[C@H](NC1=O)C(=O)N[C@@H]([C@@H](C)O)C(=O)N[C@@H](CCCNC(=N)N)C(=O)NCC(=O)N[C@@H](Cc1ccccc1)C(=O)N3)C(=O)N[C@@H](CC(C)C)C(=O)N[C@H]1CSSC[C@H](NC(=O)[C@H](C(C)C)NC(=O)CNC(=O)[C@H](CCCNC(=N)N)NC(=O)[C@H](CCCNC(=N)N)NC1=O)C(=O)N[C@@H](CCCNC(=N)N)C(=O)N2` (HELM PEPTIDE1{G.F.C.R.C.L.C.R.R.G.V.C.R.C.I.C.T.R}$PEPTIDE1,PEPTIDE1,3:R3-16:R3|PEPTIDE1,PEPTIDE1,5:R3-14:R3|PEPTIDE1,PEPTIDE1,7:R3-12:R3|PEPTIDE1,PEPTIDE1,1:R1-18:R2$$$V2.0), the half-life in data set [2] was 2.2 h.

As for `CC[C@H](C)[C@@H]1NC(=O)[C@@H]2CCCN2C(=O)[C@@H]2CCCN2C(=O)[C@H]([C@@H](C)CC)NC(=O)[C@H](CO)NC(=O)[C@H](CCCCN)NC(=O)[C@H]([C@@H](C)O)NC(=O)[C@@H]2CSSC[C@H](NC1=O)C(=O)N[C@@H](Cc1ccc(OC)cc1)C(=O)N[C@@H](Cc1ccccc1)C(=O)N[C@@H](CCC(N)=O)C(=O)N[C@@H](CC(N)=O)C(=O)N[C@@H](CCCNC(=N)N)C(=O)N1CCC[C@H]1C(=O)N[C@@H](CCCNC(=N)N)C(=O)N2` (cyclo(CTKSIPPICY(Me)FQNRPR); disulfide 1-9), the half-life in data set [1] is 0.05 h.

Turning to `CC[C@H](C)[C@@H]1NC(=O)[C@H](Cc2ccc(OC)cc2)NC(=O)CCCSC[C@@H](C(=O)N2CCC[C@H]2C(=O)N[C@@H](CC(C)C)C(=O)NCC(N)=O)NC(=O)[C@H](CC(N)=O)NC(=O)[C@H](CCC(N)=O)NC1=O` [CARBETOCIN] (Y(Me)IQNCPLG-NH2; linker N-5 via X1), the half-life in data set [2] was above 24 h.

`C[C@@H]1NC(=O)[C@@H]2CCCN2C(=O)[C@H](CC(N)=O)NC(=O)[C@@H]2CSSC[C@H](N)C(=O)N[C@H]3CSSC[C@H](NC1=O)C(=O)N[C@@H]([C@@H](C)O)C(=O)NCC(=O)N[C@H](C(=O)N[C@@H](Cc1ccc(O)cc1)C(=O)O)CSSC[C@H](NC(=O)[C@H](Cc1ccc(O)cc1)NC(=O)[C@H](CCC(=O)O)NC3=O)C(=O)N2` [LINACLOTIDE] (HELM PEPTIDE1{C.C.E.Y.C.C.N.P.A.C.T.G.C.Y}$PEPTIDE1,PEPTIDE1,1:R3-6:R3|PEPTIDE1,PEPTIDE1,2:R3-10:R3|PEPTIDE1,PEPTIDE1,5:R3-13:R3$$$V2.0): the half-life in data set [2] was above 24 h.

`C[C@@H](O)[C@@H]1NC(=O)[C@H](CCCCN)NC(=O)[C@@H](Cc2c[nH]c3ccccc23)NC(=O)[C@H](Cc2ccccc2)NC(=O)[C@@H](NC(=O)[C@H](N)Cc2ccccc2)CSSC[C@@H](C(=O)N[C@H](CO)[C@@H](C)O)NC1=O` [OCTREOTIDE]: the half-life in data set [2] was above 24 h.

In the case of `CC[C@H](C)[C@@H]1NC(=O)[C@H](Cc2ccc(O)cc2)NC(=O)[C@@H](N)CSSC[C@@H](C(=O)N2CCC[C@H]2C(=O)N[C@@H](CC(C)C)C(=O)NCC(N)=O)NC(=O)[C@H](CC(N)=O)NC(=O)[C@H](CCC(N)=O)NC1=O` [OXYTOCIN], in data set [2], the half-life is above 24 h.

With `CC(C)C[C@H](NC(=O)[C@@H]1CSSC[C@@H]2NC(=O)[C@H](CC(C)C)NC(=O)[C@H](CCC(=O)O)NC(=O)[C@@H](NC(=O)[C@H](CCC(=O)O)NC(=O)[C@H](CC(=O)O)NC(=O)[C@@H](N)CC(N)=O)CSSC[C@H](NC(=O)[C@H](C)NC(=O)[C@H](C(C)C)NC(=O)[C@H](CC(N)=O)NC(=O)[C@H](C(C)C)NC2=O)C(=O)N[C@@H]([C@@H](C)O)C(=O)NCC(=O)N1)C(=O)O` [PLECANATIDE], the half-life in data set [2] is above 24 h.

For `NC(=O)CC[C@@H]1NC(=O)[C@H](Cc2ccccc2)NC(=O)[C@H](Cc2ccc(O)cc2)NC(=O)[C@@H](N)CSSC[C@@H](C(=O)N2CCC[C@H]2C(=O)N[C@@H](CCCN=C(N)N)C(=O)NCC(N)=O)NC(=O)[C@H](CC(N)=O)NC1=O` [VASOPRESSIN], in data set [2], the half-life was above 24 h.
